Laboratory results: patent publication US20110293511A1, “SPECIFIC BINDING PROTEINS AND USES THEREOF” (priority 2009, published 2011)

Tested on: A431 xenografts
Assay: s.c. xenograft therapy study
Assay type: in vivo, nude mice
Conditions: preventative model; 0.1 mg mAb806; 400 μg AG1478
Description: Tumor cells (3×10^6) in […] of PBS were inoculated subcutaneously into both flanks of 4-6 week old female nude mice (Animal Research Centre, Western Australia, Australia). […] Treatment was continued for a total of 6 doses, 3 times per week for 2 weeks. In the established model, treatment was started when tumors had reached a mean volume of 65±6.42 mm^3 (U87MG.Δ2-7), 84±9.07 mm3 (U87MG), 73±7.5 mm^3 (U87MG.wtEGFR) or 201±19.09 mm^3 (A431 tumors). Tumor volume in mm^3 was determined using the formula (length×width)/2, where length was the longest axis and width the measurement at right angles to the length (Clark et al. (2000) Therapeutic efficacy of anti-Lewis (y) humanized 3S 193 radioimmunotherapy in a breast cancer model: enhanced activity when combined with Taxol chemotherapy. Clin. Cancer Res. 6, 3621-3628). Data was expressed as mean tumor volume±S.E. for each treatment group. Statistical analysis was performed at given time points using Student's t-test. […]
To establish xenografts, mice were injected subcutaneously into the right and left inguinal mammary line with 1×10^6 A431 adenocarcinoma cells or 1×10^6 U87MG.de2-7 glioma cells in 100 μl of PBS. Tumor volume (TV) was calculated by the formula [(length×width)/2] where length was the longest axis and width the measurement at right angles to length. […]

Question: Which “reduction of tumor volume” value does the source give for `COc1cc2ncnc(Nc3cccc(Cl)c3)c2cc1OC` [AG1478, 4-(3-Chloroanilino)-6,7-dimethoxyquinazoline, reference compound] here?
Answer: significant reduction of tumor volume
